Measurements from the NIST ThermoML archive (doi:10.1016/j.fluid.2015.09.036).
Numbers after ± are expanded uncertainties.

Experiment: wn = mass fraction of the nth substance listed
Details: 101.3 kPa, Liquid, Vibrating tube method

SMILES | mass density (283.15 K, w1 = 0.1926) | mass density (303.15 K, w1 = 0.4065) | mass density (313.15 K, w1 = 0.5552) | mass density (283.15 K, w1 = 0.06948) | mass density (303.15 K, w1 = 0.1384) | mass density (313.15 K, w1 = 0.1853)
O=C(O)CCCC(=O)O [1,5-pentanedioic acid] + CCO | 967.2 ± 0.8 kg/m3 | 999.4 ± 1.6 kg/m3 | 1005.4 ± 1.8 kg/m3 |  |  | 
O=C(O)CCCCC(=O)O [1,6-hexanedioic acid] + CCO |  |  |  | 841 ± 0.3 kg/m3 | 855.2 ± 0.5 kg/m3 | 876.9 ± 0.7 kg/m3
